Reference: US11219216B2, “Method of improving tolerance of plants to herbicides using seed insecticide treatments” (priority 2015, dated 2022)
Like-named read-outs stand apart in the source and are kept apart here.

Experiments:
[1] = tested on: Ozark conventional soybean; details: for Soybean Injury (%) 10 DAT / Soybean Injury (%) 35 DAT: fungicide-only seed
Method: A field experiment was conducted in the summer of 2014 near Newport, Ark. to evaluate the effect of a soybean insecticide seed treatment, Cruiser Maxx, on herbicide injury to convention soybean. The conventional soybean variety Ozark was planted on 7-17-14 in plots measuring 7.5×20 feet in size. In each plot, half the drill rows were treated with Cruiser Maxx at 7 oz/cwt, and the other half were treated with only the fungicide portion of that treatment. Seeding rate was 125,000 seeds per acre. Seed were planted to a depth of 0.5 inches. Soil temperature at the time of planting and application of the PRE treatments was 62 degrees F.
Post emerge treatments included Roundup PowerMax (2 and 4 oz/A), Liberty (2 and 4 oz/A), dicamba (0.25 and 0.5 oz/A), 2,4-D (0.75 and 1.5 oz/A) and Permit at 0.5 and 1.0 oz/A applied at the third trifoliate stage. Herbicides were applied with a 4 nozzle boom calibrated to deliver 15 GPA using CO2 as a propellant.
Plots were visually rated for herbicide injury at 10 days after emergence and at 35 days after application of the POST treatments. The rating scale was 0 to 100 where 0=no injury and 100=complete death or desiccation of the plant. Means were separated using Fisher's protected LSD (0.05).

cotton = details: insecticide applied in-furrow; York et al. (1991); cited from earlier work
[2] = tested on: conventional rice (Roy J); assay type: in vivo
Method: This experiment was conducted at a farm located just north of Lonoke, Ark. in the summers of 2013 and 2014. The soil texture is a silt loam with a pH of 6.3. Conventional rice (Roy J) was planted on Apr. 30, 2013 and May 20, 2014 with a Hege cone drill calibrated to deliver a seeding rate of 90 pounds (lbs)/Acre on 7.5-inch rows. Plot size was 5×25 feet. The study was conducted with a randomized complete block design having 4 replications.
Treatments consisted of seed treatment and herbicide combinations. […] The second seed treatment was considered the “nontreated seed” which actually received equivalent amounts of azoxystrobin, mefenoxam and fludioxonil as the treated seed but without the insecticide thiamethoxam.
The herbicide treatments were applied at the 2-4 If growth stage of rice with a CO2 backpack sprayer calibrated to deliver 10 gallons of spray solution per acre. Herbicide treatments included Roundup PowerMax (5.5 lb ai/gallon formulation) applied at 0, 1, 2, and 4.0 oz product/A and Newpath 2AS (2 lb ai/gallon formulation) applied at 0, 0.25, 0.5 and 1.0 oz product/A. The plot area was maintained weed free with conventional rice herbicides and the rice was grown according to University of Arkansas recommendations for soil fertility.
Data collected included: percent visual injury at 7, 21, and 42 days after treatment (DAT) on a scale of 0 to 100 with 0 being no injury and 100 being complete crop death; canopy heights at 68 DAT using a yard stick and 1 meter square piece of cardboard, percent rice heading at 107 DAT, percent moisture, and grain yield at harvest. Data were analyzed and LSD's generated at the p=0.05 level of significance using ARM 9.1.4.

[3] = POST at third trifoliate, averaged across two rates (Roundup PowerMax 2 and 4, dicamba 0.25 and 0.5, 2,4-D 0.75 and 1.5, Permit 0.5 and 1.0 oz/A), Treated soybean (Cruiser Maxx 7 oz/cwt)
[4] = POST at third trifoliate, averaged across two rates (Roundup PowerMax 2 and 4, dicamba 0.25 and 0.5, 2,4-D 0.75 and 1.5, Permit 0.5 and 1.0 oz/A)
[5] = PRE, (T) = Treated soybean (Cruiser Maxx 7 oz/cwt), Metribuzin 0.671 lb/A, Dual Magnum 2.0 pts/A, Zidua 3.5 oz/A, Valor 2.0 oz/A, mixes at same rates
[6] = PRE, Metribuzin 0.671 lb/A, Dual Magnum 2.0 pts/A, Zidua 3.5 oz/A, Valor 2.0 oz/A, mixes at same rates

Compound	Soybean Injury (%) 10 DAT (T) [1, 3] [%]	Soybean Injury (%) 35 DAT (T) [1, 3] [%]	Soybean Injury (%) 10 DAT [1, 4] [%]	Soybean Injury (%) 35 DAT [1, 4] [%]	clomazone injury to cotton (cotton)	further results
COc1c(Cl)ccc(Cl)c1C(=O)O [Dicamba, dicamba]	60	30	60	30		
CSc1nnc(C(C)(C)C)c(=O)n1N [Metribuzin, metribuzin]						Soybean Injury (%) 10 DAT (T) [1, 5]: 0%; Soybean Injury (%) 35 DAT (T) [1, 5]: 0%; Soybean Injury (%) 10 DAT [1, 6]: 0%; Soybean Injury (%) 35 DAT [1, 6]: 0%
O=C(O)COc1ccc(Cl)cc1Cl [2,4-D]	15	5	15	5		
CCOP(=S)(OCC)SCCSCC [disulfoton]					greatly reduced	
CCOP(=S)(OCC)SCSCC [phorate]					greatly reduced	
CN1COCN(Cc2cnc(Cl)s2)/C1=N\[N+](=O)[O-] [thiamethoxam]						heading ([2]; 107 DAT, all plots that received the insecticide in the seed treatment): 95-100%; yield higher for treated seed plots versus untreated or fungicide only plots ([2]; 2013, Newpath at either 0.25 or 0.5 oz/A): 100 bu/A; yield improved by addition of a seed treatment that included the insecticide ([2]; 2013, Roundup 4.0 oz/A): over 60 bushels
